PubChem BioAssay (NCI)
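Where inhibition never reached the appropriate level, the endpoint shown equals the highest concentration tested. Otherwise, values were interpolated linearly from a five-concentration, 48-hour dose response in 96-well plates. At the GI50, growth is halved. TGI: concentration producing complete growth inhibition.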

Legend:
Test in all cases: DTP human tumour cell line panel, 48 h
NCI-H226 lung = test system: NCI-H226 lung
HCC-2998 colon = test system: HCC-2998 colon
RXF 393 renal = test system: RXF 393 renal
ACHN renal = test system: ACHN renal
DU-145 prostate = test system: DU-145 prostate
786-0 renal = test system: 786-0 renal
TK-10 renal = test system: TK-10 renal
SK-MEL-5 melanoma = test system: SK-MEL-5 melanoma
HCT-116 colon = test system: HCT-116 colon
KM12 colon = test system: KM12 colon
K-562 leukemia = test system: K-562 leukemia
SF-539 CNS = test system: SF-539 CNS
MCF7 breast = test system: MCF7 breast
SNB-75 CNS = test system: SNB-75 CNS
SR leukemia = test system: SR leukemia
NCI-H23 lung = test system: NCI-H23 lung
SK-MEL-28 melanoma = test system: SK-MEL-28 melanoma
SF-268 CNS = test system: SF-268 CNS
OVCAR-3 ovarian = test system: OVCAR-3 ovarian
LOX IMVI melanoma = test system: LOX IMVI melanoma
PC-3 prostate = test system: PC-3 prostate
RPMI-8226 leukemia = test system: RPMI-8226 leukemia
EKVX NSCLC = test system: EKVX NSCLC
SK-MEL-2 melanoma = test system: SK-MEL-2 melanoma
A498 renal = test system: A498 renal
OVCAR-8 ovarian = test system: OVCAR-8 ovarian
CAKI-1 renal = test system: CAKI-1 renal
HOP-92 NSCLC = test system: HOP-92 NSCLC
A549 NSCLC = test system: A549 NSCLC
MOLT-4 leukemia = test system: MOLT-4 leukemia
NCI-H460 lung = test system: NCI-H460 lung
SK-OV-3 ovarian = test system: SK-OV-3 ovarian
HL-60(TB) leukemia = test system: HL-60(TB) leukemia
HOP-62 NSCLC = test system: HOP-62 NSCLC
NCI/ADR-RES ovarian = test system: NCI/ADR-RES ovarian
SNB-19 CNS = test system: SNB-19 CNS
MDA-MB-231 breast = test system: MDA-MB-231 breast
UO-31 renal = test system: UO-31 renal
HT29 colon = test system: HT29 colon
BT-549 breast = test system: BT-549 breast
UACC-62 melanoma = test system: UACC-62 melanoma
MALME-3M melanoma = test system: MALME-3M melanoma
HS 578T breast = test system: HS 578T breast
SW-620 colon = test system: SW-620 colon
OVCAR-5 ovarian = test system: OVCAR-5 ovarian
U251 CNS = test system: U251 CNS
HCT-15 colon = test system: HCT-15 colon
OVCAR-4 ovarian = test system: OVCAR-4 ovarian
M14 melanoma = test system: M14 melanoma
MDA-MB-435 = test system: MDA-MB-435
IGROV1 ovarian = test system: IGROV1 ovarian
SN12C renal = test system: SN12C renal
CCRF-CEM leukemia = test system: CCRF-CEM leukemia
UACC-257 melanoma = test system: UACC-257 melanoma
SF-295 CNS = test system: SF-295 CNS
COLO 205 colon = test system: COLO 205 colon
T-47D breast = test system: T-47D breast
NCI-H522 lung = test system: NCI-H522 lung

## C=CC(=O)N1C[C@H](COc2nc(Nc3cnn(C)c3)nc3[nH]cc(Cl)c23)[C@@H](OC)C1
NCI-H226 lung
  GI50: 0.97 µM
  TGI: 21.7 µM
HCC-2998 colon
  GI50: 5.47 µM
  TGI: 19.4 µM
RXF 393 renal
  GI50: 0.509 µM
  TGI: 2.88 µM
ACHN renal
  GI50: 0.993 µM
  TGI: 13.3 µM
DU-145 prostate
  GI50: 1.45 µM
  TGI: 15.4 µM
786-0 renal
  GI50: 1.96 µM
  TGI: 29.6 µM
TK-10 renal
  GI50: 1.16 µM
  TGI: 10.6 µM
SK-MEL-5 melanoma
  GI50: 11.5 µM
  TGI: 23.6 µM
HCT-116 colon
  GI50: 1.24 µM
  TGI: 14.3 µM
KM12 colon
  GI50: 0.342 µM
  TGI: 14 µM
K-562 leukemia
  GI50: 4.75 µM
  TGI: > 100 µM
SF-539 CNS
  GI50: 1.28 µM
  TGI: 4.61 µM
MCF7 breast
  GI50: 1.22 µM
  TGI: 13.8 µM
SNB-75 CNS
  GI50: 0.357 µM
  TGI: 2.42 µM
SR leukemia
  GI50: 0.65 µM
  TGI: > 100 µM
NCI-H23 lung
  GI50: 4.1 µM
  TGI: 18.9 µM
SK-MEL-28 melanoma
  GI50: 8.43 µM
  TGI: 25.9 µM
SF-268 CNS
  GI50: 0.965 µM
  TGI: 15.5 µM
OVCAR-3 ovarian
  GI50: 2.28 µM
  TGI: 18 µM
LOX IMVI melanoma
  GI50: 0.894 µM
  TGI: 12.2 µM
PC-3 prostate
  GI50: 3.98 µM
  TGI: 55.3 µM
RPMI-8226 leukemia
  GI50: 3.29 µM
  TGI: 22.7 µM
EKVX NSCLC
  GI50: 1.23 µM
  TGI: 8.55 µM
SK-MEL-2 melanoma
  GI50: 11.5 µM
  TGI: 25.7 µM
A498 renal
  GI50: 0.26 µM
  TGI: 1.14 µM
OVCAR-8 ovarian
  GI50: 4.74 µM
  TGI: 24.5 µM
CAKI-1 renal
  GI50: 1 µM
  TGI: 3.67 µM
HOP-92 NSCLC
  GI50: 1.25 µM
  TGI: 4.87 µM
A549 NSCLC
  GI50: 2.8 µM
  TGI: 14.8 µM
MOLT-4 leukemia
  GI50: 2.02 µM
  TGI: 37.9 µM
NCI-H460 lung
  GI50: 4.13 µM
  TGI: 18.6 µM
SK-OV-3 ovarian
  GI50: 0.225 µM
  TGI: 1.2 µM
HL-60(TB) leukemia
  GI50: 3.31 µM
  TGI: 13 µM
HOP-62 NSCLC
  GI50: 4.12 µM
  TGI: 28.5 µM
NCI/ADR-RES ovarian
  GI50: 18 µM
  TGI: 65.3 µM
SNB-19 CNS
  GI50: 3.41 µM
  TGI: 16.2 µM
MDA-MB-231 breast
  GI50: 2.84 µM
  TGI: 16.1 µM
UO-31 renal
  GI50: 1.55 µM
  TGI: 11 µM
HT29 colon
  GI50: 5.24 µM
  TGI: 48.6 µM
BT-549 breast
  GI50: 0.992 µM
  TGI: 8.34 µM
UACC-62 melanoma
  GI50: 2.89 µM
  TGI: 14.3 µM
MALME-3M melanoma
  GI50: 10.9 µM
  TGI: 24.4 µM
HS 578T breast
  GI50: 1.01 µM
  TGI: 4.31 µM
SW-620 colon
  GI50: 1.15 µM
  TGI: 16.2 µM
OVCAR-5 ovarian
  GI50: 3.18 µM
  TGI: 48.4 µM
U251 CNS
  GI50: 0.991 µM
  TGI: 17.5 µM
HCT-15 colon
  GI50: 4.74 µM
  TGI: 24.3 µM
OVCAR-4 ovarian
  GI50: 2.15 µM
  TGI: 14.1 µM
M14 melanoma
  GI50: 4.49 µM
  TGI: 20.3 µM
MDA-MB-435
  GI50: 3 µM
  TGI: 16.4 µM
IGROV1 ovarian
  GI50: 0.438 µM
  TGI: 2.79 µM
SN12C renal
  GI50: 2.29 µM
  TGI: 15.7 µM
CCRF-CEM leukemia
  GI50: 0.635 µM
  TGI: > 100 µM
UACC-257 melanoma
  GI50: 6.64 µM
  TGI: 28 µM
SF-295 CNS
  GI50: 11.6 µM
  TGI: 24.2 µM
COLO 205 colon
  GI50: 2.83 µM
  TGI: 14.6 µM
T-47D breast
  GI50: 2.01 µM
  TGI: 17.6 µM
NCI-H522 lung
  GI50: 0.431 µM
  TGI: 17.6 µM
